From patent US8133851B2, “Heteroaroyl-substituted serine amides” (BASF SE, priority 2007, dated 2012)

melting point: 190 °C
Compound: CNC(=O)C(NC(=O)c1cn(C)nc1C(F)(F)F)C1(OC(=O)N(C)C)CCC1 (stereo not shown) [Example 1, Dimethylcarbamic acid 1-{methylcarbamoyl-[(1-methyl-3-trifluoromethyl-1H-pyrazole-4-carbonyl)amino]methyl}cyclobutyl ester]
